Laboratory results published in patent US20160237400A1, “ISOLATION OF NON-EMBRYONIC STEM CELLS AND USES THEREOF” (The Jackson Laboratory, priority 2013, published 2016).
Entries after “also recorded” stand apart in the source; their conditions may differ.

Columns and labels:
[1] = test system: paclitaxel resistant (G3) IC#1 CSC library; test: plate (colony formation) assay, paclitaxel-resistant CSC library; type: cell-based, human
Method: (§1) Survivors were re-plated en masse, and cycled through two additional rounds of 100 nM paclitaxel for 3 hours with recovery in between for 10 days, after which visible colonies were selected and individually expanded as pedigrees (FIG. 28B). To determine relationships between these ad hoc, paclitaxel-resistant pedigrees from the library and the 92 randomly sampled pedigrees from the treatment-naïve IC#1 library assessed for CSC heterogeneity, their CNV profiles were mapped onto the heterogeneity map established for IC#1.
The GSEA data in the table above highlighted the PGR pathway. Analysis of gene expression in the IC#1 CSC library treated with successive rounds of paclitaxel indeed confirmed a progressive increase in PGR expression (FIG. 31). […] The fate of 25,000 colony forming units from the IC#1 CSC library and the paclitaxel resistant library (G3) following exposure to combinations of paclitaxel, RU486, and cisplatin were directly compared. RU486 is a PGR antagonist that has previously been tested and failed as a single agent in clinical trials for recurrent ovarian cancer.
Next, the long-term impact of these drug combinations on the paclitaxel-resistant G3 pool over successive rounds of exposure was investigated.
(§2) High-grade ovarian cancer was surgically resected, and tumor tissue was collected into cold F12 media (Gibco, USA) with 5% fetal bovine serum (HyClone, USA) and then minced by sterile scalpel into 0.2-0.5 mm^3 sizes to a viscous and homogeneous appearance. The minced tissue was digested in 2 mg/mL collagenase type IV (Gibco, USA) at 37° C. for 30-60 min with agitation. Dissociated cells were passed through a 70 μm Nylon mesh (Falcon, USA) to remove aggregates and then were washed four times in cold F12 media, and then seeded onto a feeder layer of lethally irradiated 3T3-J2 cells in c-FAD media modified to SCM-68 media by the addition of 125 ng/mL R-spondin1 (R&D systems, USA), 1 μM Jagged-1 (AnaSpec Inc., USA), 100 ng/ml human Noggin (Peprotech, USA), 2.5 μM Rock-inhibitor (Calbiochem, USA), 2 μM SB431542 (Cayman chemical, USA), and 10 mM nicotinamide (Sigma-Aldrich, USA).
Cells were cultured at 37° C. in a 7.5% CO2 incubator. The culture media was replaced every two days. Colonies were digested by 0.25% trypsin-EDTA solution (Gibco, USA) for 5-8 min and passaged every 7 to 10 days. Colonies were trypsinized by TrypLE Express solution (Gibco, USA) for 8-15 min at 37° C. and cell suspensions were passed through 30 μm filters (Miltenyi Biotec, Germany). Approximately 20,000 epithelial cells were seeded to each well of 6-well plate. Cloning cylinder (Pyrex, USA) and high vacuum grease (Dow Corning, USA) were used to select single colonies for pedigrees. Gene expression analyses were performed on cells derived from passage 2-8 (P2-P8) cultures.

[2] = test system: Krt5+ / Krt6+ cells in lung of Krt6-DTR mice; settings: in vivo
[3] = test system: stem cell colonies (DASCp63/Krt5) from Krt6-DTR and WT mouse lung; type: cell-based
[4] = test system: CD166hi CSC clones from the IC#1 library; test: drug challenge of CD166hi sorted CSC clones; type: cell-based, human; settings: clones flow sorted for CD166 from the IC#1 library, individually tested
[5] = test system: CSCs from the IC#2 library; test: paclitaxel challenge of IC#2 CSCs; type: cell-based, human; settings: parameters identical to IC#1 (100 nM, 3 hours, three rounds); 37 individual CSCs
[6] = test system: CSC pedigrees sampled from Groups B, C, D, E, F and G of the IC#1 library; test: paclitaxel challenge of sampled CSC pedigrees of Groups B to G; type: cell-based, human
[7] = test system: N11 CSC pedigree (IC#1 library); test: paclitaxel challenge of sampled CSC pedigree N11; type: cell-based, human
[8] = test system: CSCs from the IC#1 library (G0), high-grade ovarian cancer; test: plate (colony formation) assay, rhodamine B stain, treatment-naive CSC library; type: cell-based, human
Method: To probe for paclitaxel resistance in the IC#1 library of CSCs, a paclitaxel dose-response curved were established by challenging 10,000 CSCs with a spectrum of paclitaxel concentrations. […] The plates were then stained with rhodamine B. Rhodamine B-stained 100 nM paclitaxel treatment plate yielded less than 0.1% of the control colonies.
as §1, §2
Cells were cultured at 37° C. in a 7.5% CO2 incubator. The culture media was replaced every two days. Colonies were digested by 0.25% trypsin-EDTA solution (Gibco, USA) for 5-8 min and passaged every 7 to 10 days. […]

Which “effect towards resistant CSCs of IC#1 when used together with paclitaxel” value [1] does the source give for `CC(C)C[C@H](NC(=O)[C@H](Cc1ccccc1)NC(=O)c1cnccn1)B(O)O` [bortezomib] here?
Its value is “synthetic lethality”.

How did the “effect towards resistant CSCs of IC#1 when used together with paclitaxel” value [1] turn out when `CC(C)C[C@H](NC(=O)[C@H](CCc1ccccc1)NC(=O)CN1CCOCC1)C(=O)N[C@@H](Cc1ccccc1)C(=O)N[C@@H](CC(C)C)C(=O)[C@@]1(C)CO1` [carfilzomib] was run?
Its value is “synthetic lethality”.

Which “reduction of clonogenic cell number versus WT mouse with DT (clonogenic assay)” value [2] does the source give for diphtheria toxin here?
The value was 70-80%.

And the “loss of Krt5+ cells compared to wild type controls” value ([2]; mouse)?
The value was 90%.

What about the “loss of Krt6+ cells compared to wild type controls” value ([2]; mouse) of the same molecule?
The value was “greater than 99%”.

What about the “reduction of Krt5+ cell number versus WT (IF staining)” value ([2]; mouse, ip) of the same molecule?
Its value is 70%.

And the “reduction of Krt6+ cell number versus WT (IF staining)” value ([2]; mouse, ip)?
The value was about 90%.

What about the “fate of Krt6-DTR stem cell colonies on diphtheria toxin” value [3] of the same molecule?
Its value is “die within four days; also recorded: dies after 4 days”.

And the “fate of control (WT) colonies on diphtheria toxin” value [3]?
The value was “continued to proliferate and expand in size; also recorded: looks normal”.

And the “sensitivity of Krt6 negative endothelial cells from Krt6-DTR mice” value [3]?
Its value is “insensitive”.

Which “CD166hi clones tested with intrinsic resistance” value [4] does the source give for `CC(=O)O[C@H]1C(=O)[C@@]2(C)[C@H]([C@H](OC(=O)c3ccccc3)[C@]3(O)C[C@H](OC(=O)[C@H](O)[C@@H](NC(=O)c4ccccc4)c4ccccc4)C(C)=C1C3(C)C)[C@]1(OC(C)=O)CO[C@@H]1C[C@@H]2O` [paclitaxel] here?
Its value is 21%.

What about the “survival of triple paclitaxel challenge” value [5] of the same molecule?
Its value is “none of the 37 individual CSCs from the IC#2 library survived”.

What about the “resistance at the third round” value ([6]; CSCs within group B, third round of paclitaxel) of the same molecule?
The value was “less than 35%”.

What about the “resistance to initial challenge” value ([6]; single dose of 100 nM paclitaxel, representative CSCs from the other six clusters) of the same molecule?
Its value is “little or no resistance”.

What about the “survival (colonies) of the paclitaxel-resistant G3 pool” value ([1]; 25,000 colony-forming units, G4 challenge) of the same molecule?
The value was 15%.

And the “resistance over four additional successive rounds of exposure, measured by colony formation” value ([1]; Ru486 10 μM, paclitaxel 100 nM, cisplatin 20 μM)?
The value was “progressive resistance”.

What about the “cells survived initial challenge” value ([7]; initial challenge, single dose of 100 nM paclitaxel) of the same molecule?
Its value is 17.5%.

What about the “resistance after two additional challenges” value ([7]; third round of paclitaxel) of the same molecule?
Its value is about 100%.

And the “colonies relative to control colonies” value ([8]; 100 nM paclitaxel for 3 hours, about 10,000 colony-forming units, rhodamine B stain)?
Its value is “less than 0.1%”.

What about the “activity against the treatment naive IC#1 G0 library” value ([8]; 25,000 colony-forming units, single agent) of the same molecule?
The value was “strong activity”.

And the “resistance to initial challenge” value ([8]; single dose of 100 nM paclitaxel, IC#1 library)?
The value was “little or no resistance”.
